Data set [1] has as its system Plasmodium falciparum. The data set is described as follows: Antimalarial activity against blood stage form of Plasmodium falciparum assessed as incorporation of [3H]hypoxanthine after 72 hrs by liquid scintillation counting. In kind it is functional, organism-based.
Data set [2] deals with Plasmodium falciparum. The data set is described as follows: Antimalarial activity against chloroquine-sensitive Plasmodium falciparum 3D7 infected in human erythrocytes assessed as parasite growth inhibition after 50 hrs by SYBR Green1 dye-based fluorescence assay. The format is functional, organism-based.
The subject of data set [3] is Plasmodium falciparum. Kind of data set: Potency index, ratio of ciprofloxacin IC50 to compound IC50 for chloroquine-sensitive Plasmodium falciparum 3D7 infected in human erythrocytes. In kind it is functional.
The test system of data set [4] is Plasmodium falciparum. Kind of data set: Potency index, ratio of ciprofloxacin IC50 to compound IC50 for chloroquine-resistant Plasmodium falciparum Dd2 infected in human erythrocytes. In kind it is functional.
Data set [5] is described as follows: Solubility of the compound at 93 uM. In kind it is physicochemical.
A further data set relates to HepG2. Kind of data set: Cytotoxicity against human HepG2 cells assessed as cell viability after 72 hrs by MTT assay. The format is cell-based. Conditions: HepG2, 72 h.
In another data set the test system is THP-1. Kind of data set: Cytotoxicity against human THP1 cells assessed as cell viability after 72 hrs by MTT assay. The format is cell-based. Conditions: THP-1, 72 h. In general terms: Formazan colour is commonly taken as a measure of viable cells.
Data set [6] deals with Plasmodium falciparum. The data set is described as follows: Antimalarial activity against chloroquine-resistant Plasmodium falciparum Dd2 infected in human erythrocytes assessed as parasite growth inhibition after 50 hrs by SYBR Green1 dye-based fluorescence assay. The format is functional, cell-based. The note with it: Dd2, 50 h.
Data set [7] in a line: Selectivity index, ratio of IC50 for human HepG2 cells to IC50 for chloroquine-sensitive Plasmodium falciparum 3D7. The note with it: read-out: Ratio IC50. The format is toxicity, cell-based.
The nature of data set [8]: Selectivity index, ratio of IC50 for human THP1 cells to IC50 for chloroquine-sensitive Plasmodium falciparum 3D7. In kind it is toxicity, cell-based, THP-1. The note with it: read-out: Ratio IC50.
Where [9] appears, read: Plasmodium falciparum, 3D7, 50 h, read-out: IC50.

Consider 33 molecules from ChEMBL document CHEMBL3232776, “Emergence of pyrido quinoxalines as new family of antimalarial agents” (Eur J Med Chem, 2014).

The source made the active and inactive calls. The calls are words filed in the database; no cut-off is given here.

Broadly, the IC50 is the concentration needed to halve the response being measured.

For `NC1CCN(c2c(F)cc3c(=O)c(C(=O)O)cn(C4CC4)c3c2Cl)C1` (stereo not drawn) [CLINAFLOXACIN], the IC50 in the data set with Plasmodium falciparum [1] was 20 µM.

`CCOC(=O)c1cn(CC(F)(F)F)c2ccc3nc(-c4ccccc4)c(-c4ccccc4)nc3c2c1=O`: the IC50 with Plasmodium falciparum [2] (setting [9]) is 13.1 µM. In addition, the “Ratio IC50” value in the data set with Plasmodium falciparum [3] and with Plasmodium falciparum [4] was 2 each time.

`CCCCn1cc(C(=O)O)c(=O)c2c3nc(-c4ccccc4)c(-c4ccccc4)nc3ccc21`: the “growth inhibition (GI)” value with Plasmodium falciparum [2] was “inactive”. Further, in [5], the solubility result is “Insoluble”.

Consider `C#CCn1cc(C(=O)OCC)c(=O)c2c3nc(-c4ccccc4)c(-c4ccccc4)nc3ccc21`, for which the IC50 result with Plasmodium falciparum [2] is “ND(Insoluble)”. The “Ratio IC50” value with Plasmodium falciparum [3] and with Plasmodium falciparum [4] was 2 in each case. For the same molecule, in data set [5], the solubility entry is reported as “Insoluble”.

As to `COc1cccc2c1C(=O)c1c(O)c3c(c(O)c1C2=O)C[C@@](O)(C(=O)CO)C[C@@H]3O[C@H]1C[C@H](N)[C@H](O)[C@H](C)O1` [DOXORUBICIN], the concentration for half-maximal inhibition (IC50) with HepG2 turned out to be 0.2 µM; in the data set with THP-1 it was 0.05 µM.

In the case of `CCOC(=O)c1cn(CC(F)(F)F)c2ccc3nc(-c4ccc(F)cc4)c(-c4ccc(F)cc4)nc3c2c1=O`, the half-maximal inhibitory concentration (IC50) turned out to be 3.92 µM in the data set with Plasmodium falciparum [2] (setting [9]), 4.6 µM in the data set with Plasmodium falciparum [6], 250 µM in the data set on HepG2 and 275 µM in the data set on THP-1. For the same molecule, the “Ratio IC50” value in the data set on Plasmodium falciparum [3] and in the data set on Plasmodium falciparum [4] was 5 in each case. Further, the selectivity ratio turned out to be 63.8 in [7] and 70.2 in data set [8].

`Cc1c(F)c(N2CCNC(C)C2)cc2c1c(=O)c(C(=O)O)cn2C1CC1` (stereo not drawn) [GREPAFLOXACIN]: the IC50 in the data set with Plasmodium falciparum [1] came to 20 µM.

Take `O=C(O)c1cn(C2CC2)c2cc(N3CCNCC3)c(F)cc2c1=O` [CIPROFLOXACIN]: the IC50 in the data set with Plasmodium falciparum [2] (setting [9]) amounted to 23.1 µM; in the data set with Plasmodium falciparum [6], 33.9 µM; in the data set on THP-1, 60.5 µM; in the data set on Plasmodium falciparum [1], 20 µM. Also, the selectivity ratio in data set [8] worked out at 2.61.

In the case of `CCOC(=O)c1cn(Cc2ccc(C(F)(F)F)cc2)c2ccc3nc(-c4ccccc4)c(-c4ccccc4)nc3c2c1=O`, the IC50 entry with Plasmodium falciparum [2] is recorded as “ND(Insoluble)”. In addition, the “Ratio IC50” value with Plasmodium falciparum [3] and in the data set with Plasmodium falciparum [4] was 2 each time. For the same molecule, the solubility entry in [5] is “Insoluble”.

Consider `CCOC(=O)c1cn(Cc2ccc(C(F)(F)F)cc2)c2ccc3nc(-c4ccc(F)cc4)c(-c4ccc(F)cc4)nc3c2c1=O`, for which, in the data set on Plasmodium falciparum [2] (setting [9]), the IC50 was > 50 µM. Further, the “Ratio IC50” value with Plasmodium falciparum [3] and in the data set on Plasmodium falciparum [4] was 2 throughout.

As to `CCOC(=O)c1cn(Cc2ccc(F)cc2)c2ccc3nc(-c4ccccc4)c(-c4ccccc4)nc3c2c1=O`, the IC50 in the data set with Plasmodium falciparum [2] (setting [9]) is 6.94 µM; in the data set on Plasmodium falciparum [6] it was 6.27 µM; with HepG2, 150 µM; in the data set on THP-1, 200 µM. Also, the “Ratio IC50” value in the data set on Plasmodium falciparum [3] and with Plasmodium falciparum [4] was 3.3 each time. Also, the selectivity ratio turned out to be 21.6 in [7] and 28.8 in [8].

With `O=C(O)c1cn(Cc2ccc(F)cc2)c2ccc3nc(-c4ccccc4)c(-c4ccccc4)nc3c2c1=O`, the “growth inhibition (GI)” value in the data set with Plasmodium falciparum [2] is “inactive”. In addition, in data set [5], the solubility entry is recorded as “Insoluble”.

Take `CCCCn1cc(C(=O)OCC)c(=O)c2c3nc(-c4ccc(F)cc4)c(-c4ccc(F)cc4)nc3ccc21`: the concentration for half-maximal inhibition (IC50) in the data set on Plasmodium falciparum [2] (setting [9]) was > 50 µM. Also, the “Ratio IC50” value with Plasmodium falciparum [3] and in the data set on Plasmodium falciparum [4] was 2 in each case.

Take `CCn1cc(C(=O)O)c(=O)c2cc(F)c(N3CCNCC3)nc21` [ENOXACIN]: the IC50 with Plasmodium falciparum [1] was 20 µM.

On to `C#CCn1cc(C(=O)O)c(=O)c2c3nc(-c4ccccc4)c(-c4ccccc4)nc3ccc21`, for which the “growth inhibition (GI)” value in the data set with Plasmodium falciparum [2] is “inactive”. For the same molecule, in data set [5], the solubility result is on record as “Insoluble”.

Turning to `CCCCn1cc(C(=O)O)c(=O)c2c3nc(-c4ccc(F)cc4)c(-c4ccc(F)cc4)nc3ccc21`, the IC50 in the data set with Plasmodium falciparum [2] (setting [9]) was 40.4 µM.

In the case of `CCOC(=O)C(=CNc1ccc2nc(-c3ccccc3)c(-c3ccccc3)nc2c1)C(=O)OCC`, the half-inhibitory concentration (IC50) worked out at 16 µM in the data set on Plasmodium falciparum [2] (setting [9]) and 15.5 µM with Plasmodium falciparum [6].

For the molecule `O=C(O)c1cn(Cc2ccc(C(F)(F)F)cc2)c2ccc3nc(-c4ccc(F)cc4)c(-c4ccc(F)cc4)nc3c2c1=O`, the IC50 with Plasmodium falciparum [2] (setting [9]) was > 50 µM.

With `CCn1cc(C(=O)O)c(=O)c2c3nc(-c4ccc(F)cc4)c(-c4ccc(F)cc4)nc3ccc21`, the IC50 in the data set with Plasmodium falciparum [2] (setting [9]) is > 50 µM.

Regarding `CCOC(=O)C(=CNc1ccc2nc(-c3ccc(F)cc3)c(-c3ccc(F)cc3)nc2c1)C(=O)OCC`, in the data set with Plasmodium falciparum [2] (setting [9]), the concentration for half-maximal inhibition (IC50) was 21.3 µM.

In the case of `C#CCn1cc(C(=O)OCC)c(=O)c2c3nc(-c4ccc(F)cc4)c(-c4ccc(F)cc4)nc3ccc21`, the IC50 in the data set on Plasmodium falciparum [2] (setting [9]) was found to be 18.7 µM. Moreover, the “Ratio IC50” value with Plasmodium falciparum [3] and in the data set on Plasmodium falciparum [4] was 2 throughout.

As to `CCOC(=O)c1cn(CC)c2ccc3nc(-c4ccc(F)cc4)c(-c4ccc(F)cc4)nc3c2c1=O`, in the data set with Plasmodium falciparum [2] (setting [9]), the concentration for half-maximal inhibition (IC50) worked out at 32.2 µM. In addition, the “Ratio IC50” value with Plasmodium falciparum [3] and with Plasmodium falciparum [4] was 2 in each case.

For `CCOC(=O)c1cnc2ccc3nc(-c4ccc(F)cc4)c(-c4ccc(F)cc4)nc3c2c1O`, the values for the IC50 in the data set with Plasmodium falciparum [2] (setting [9]) and with Plasmodium falciparum [6] were 15.7 µM and 26.9 µM, respectively.

For `CCOC(=O)c1cn(CC)c2ccc3nc(-c4ccccc4)c(-c4ccccc4)nc3c2c1=O`, the figures for the half-inhibitory concentration (IC50) in the data set on Plasmodium falciparum [2] (setting [9]) and in the data set on Plasmodium falciparum [6] were 15.4 µM and 11.3 µM, respectively. Further, the “Ratio IC50” value with Plasmodium falciparum [3] and with Plasmodium falciparum [4] was 2 each time.

Consider `O=C(O)c1cn(Cc2ccc(C(F)(F)F)cc2)c2ccc3nc(-c4ccccc4)c(-c4ccccc4)nc3c2c1=O`, for which the “growth inhibition (GI)” value in the data set with Plasmodium falciparum [2] was “inactive”. Besides, the solubility entry in [5] is “Insoluble”.

As for `CCCCn1cc(C(=O)OCC)c(=O)c2c3nc(-c4ccccc4)c(-c4ccccc4)nc3ccc21`, in the data set with Plasmodium falciparum [2] (setting [9]), the half-inhibitory concentration (IC50) was 9.17 µM. The “Ratio IC50” value with Plasmodium falciparum [3] and in the data set with Plasmodium falciparum [4] was 2 in each case.

With `CCOC(=O)c1cn(Cc2ccc(F)cc2)c2ccc3nc(-c4ccc(F)cc4)c(-c4ccc(F)cc4)nc3c2c1=O`, the IC50 turned out to be 7.59 µM in the data set with Plasmodium falciparum [2] (setting [9]), 7.11 µM in the data set on Plasmodium falciparum [6], 200 µM in the data set on HepG2 and 140 µM with THP-1. Besides, the “Ratio IC50” value in the data set with Plasmodium falciparum [3] and in the data set on Plasmodium falciparum [4] was 2 each time. Besides, the selectivity ratio came to 26.4 in data set [7] and 18.4 in data set [8].

With `CCn1cc(C(=O)O)c(=O)c2c3nc(-c4ccccc4)c(-c4ccccc4)nc3ccc21`, in the data set with Plasmodium falciparum [2], the “growth inhibition (GI)” value is “inactive”. Besides, the solubility entry in [5] is reported as “Insoluble”.

In the case of `C#CCn1cc(C(=O)O)c(=O)c2c3nc(-c4ccc(F)cc4)c(-c4ccc(F)cc4)nc3ccc21`, the concentration for half-maximal inhibition (IC50) in the data set with Plasmodium falciparum [2] (setting [9]) was > 50 µM.

Turning to `O=C(O)c1cn(CC(F)(F)F)c2ccc3nc(-c4ccc(F)cc4)c(-c4ccc(F)cc4)nc3c2c1=O`, the 50% inhibitory concentration (IC50) in the data set on Plasmodium falciparum [2] (setting [9]) was > 50 µM.

Consider `CCOC(=O)c1cnc2ccc3nc(-c4ccccc4)c(-c4ccccc4)nc3c2c1O`, for which the IC50 in the data set with Plasmodium falciparum [2] (setting [9]) is 29.8 µM.

With `O=C(O)c1cn(CC(F)(F)F)c2ccc3nc(-c4ccccc4)c(-c4ccccc4)nc3c2c1=O`, the “growth inhibition (GI)” value in the data set on Plasmodium falciparum [2] is “inactive”. Also, in [5], the solubility entry is “Insoluble”.

Consider `O=C(O)c1cn(Cc2ccc(F)cc2)c2ccc3nc(-c4ccc(F)cc4)c(-c4ccc(F)cc4)nc3c2c1=O`, for which the 50% inhibitory concentration (IC50) in the data set with Plasmodium falciparum [2] (setting [9]) is > 50 µM.
